pEC50, pIC50: −log10 of the molar value.
Tests used:
[1] = biological target: AR / CBP ternary complex (Homo sapiens, UniProt P10275+Q92793); assay: Ternary complex formation assay (sandwich ELISA, AR capture, CBP antibody detection) in VCaP cell lysates; assay type: cell-based; conditions: treated 1.5 hours, rabbit CBP or p300 antibody detection, average, read-out: Average Ternary Complex
In short: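 Sandwich ELISA: plates were coated with anti-AR antibody (AR441) and given lysates of VCaP cells treated 1.5 h with bifunctional compound in charcoal-stripped serum. Co-captured CBP or p300 was probed with rabbit mAbs and HRP secondary. Chemifluorescent signal (ex 570/em 585) was read at 0, 5 and 15 min.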

[2] = tested on: VCaP cells; assay: VCaP growth inhibition assay (CTG); assay type: cell-based; conditions: Homo sapiens, 216 h, 30 pM R1881, 9 days
In short: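 Growth was measured by CTG luminescence after a 9-day exposure of VCaP cells to compound (final 10 fM–100 nM, fivefold steps) in the presence of 30 pM final R1881, in phenol red-free DMEM/5% CSS. IC50 values were derived by nonlinear 4-parameter regression of RLU against concentration.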

Chain of AR / CBP ternary complex (P10275 whole entry): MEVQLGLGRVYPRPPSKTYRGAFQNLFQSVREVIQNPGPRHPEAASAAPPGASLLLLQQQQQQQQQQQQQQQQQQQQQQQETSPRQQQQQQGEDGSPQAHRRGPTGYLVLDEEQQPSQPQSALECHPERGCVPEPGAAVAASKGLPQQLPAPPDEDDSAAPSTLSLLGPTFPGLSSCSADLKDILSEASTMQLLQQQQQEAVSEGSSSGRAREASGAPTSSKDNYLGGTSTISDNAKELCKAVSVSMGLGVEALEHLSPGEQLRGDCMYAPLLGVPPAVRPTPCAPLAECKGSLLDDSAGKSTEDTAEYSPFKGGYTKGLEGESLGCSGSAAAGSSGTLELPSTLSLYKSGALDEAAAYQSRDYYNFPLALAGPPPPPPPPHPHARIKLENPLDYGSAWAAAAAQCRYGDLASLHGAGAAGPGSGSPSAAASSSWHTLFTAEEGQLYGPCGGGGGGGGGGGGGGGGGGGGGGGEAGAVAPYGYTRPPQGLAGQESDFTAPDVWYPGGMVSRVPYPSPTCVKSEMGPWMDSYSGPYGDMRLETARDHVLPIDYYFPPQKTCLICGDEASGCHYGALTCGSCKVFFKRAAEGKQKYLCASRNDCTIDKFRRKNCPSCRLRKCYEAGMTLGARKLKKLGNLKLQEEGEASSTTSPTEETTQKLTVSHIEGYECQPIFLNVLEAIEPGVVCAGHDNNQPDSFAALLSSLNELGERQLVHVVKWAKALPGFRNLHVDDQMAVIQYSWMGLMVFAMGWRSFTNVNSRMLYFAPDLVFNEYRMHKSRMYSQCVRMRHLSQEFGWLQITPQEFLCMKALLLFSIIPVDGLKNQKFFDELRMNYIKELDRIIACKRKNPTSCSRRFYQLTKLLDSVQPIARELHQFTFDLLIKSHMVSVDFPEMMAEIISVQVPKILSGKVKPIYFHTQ
Chain of AR / CBP ternary complex (Q92793 2-2442): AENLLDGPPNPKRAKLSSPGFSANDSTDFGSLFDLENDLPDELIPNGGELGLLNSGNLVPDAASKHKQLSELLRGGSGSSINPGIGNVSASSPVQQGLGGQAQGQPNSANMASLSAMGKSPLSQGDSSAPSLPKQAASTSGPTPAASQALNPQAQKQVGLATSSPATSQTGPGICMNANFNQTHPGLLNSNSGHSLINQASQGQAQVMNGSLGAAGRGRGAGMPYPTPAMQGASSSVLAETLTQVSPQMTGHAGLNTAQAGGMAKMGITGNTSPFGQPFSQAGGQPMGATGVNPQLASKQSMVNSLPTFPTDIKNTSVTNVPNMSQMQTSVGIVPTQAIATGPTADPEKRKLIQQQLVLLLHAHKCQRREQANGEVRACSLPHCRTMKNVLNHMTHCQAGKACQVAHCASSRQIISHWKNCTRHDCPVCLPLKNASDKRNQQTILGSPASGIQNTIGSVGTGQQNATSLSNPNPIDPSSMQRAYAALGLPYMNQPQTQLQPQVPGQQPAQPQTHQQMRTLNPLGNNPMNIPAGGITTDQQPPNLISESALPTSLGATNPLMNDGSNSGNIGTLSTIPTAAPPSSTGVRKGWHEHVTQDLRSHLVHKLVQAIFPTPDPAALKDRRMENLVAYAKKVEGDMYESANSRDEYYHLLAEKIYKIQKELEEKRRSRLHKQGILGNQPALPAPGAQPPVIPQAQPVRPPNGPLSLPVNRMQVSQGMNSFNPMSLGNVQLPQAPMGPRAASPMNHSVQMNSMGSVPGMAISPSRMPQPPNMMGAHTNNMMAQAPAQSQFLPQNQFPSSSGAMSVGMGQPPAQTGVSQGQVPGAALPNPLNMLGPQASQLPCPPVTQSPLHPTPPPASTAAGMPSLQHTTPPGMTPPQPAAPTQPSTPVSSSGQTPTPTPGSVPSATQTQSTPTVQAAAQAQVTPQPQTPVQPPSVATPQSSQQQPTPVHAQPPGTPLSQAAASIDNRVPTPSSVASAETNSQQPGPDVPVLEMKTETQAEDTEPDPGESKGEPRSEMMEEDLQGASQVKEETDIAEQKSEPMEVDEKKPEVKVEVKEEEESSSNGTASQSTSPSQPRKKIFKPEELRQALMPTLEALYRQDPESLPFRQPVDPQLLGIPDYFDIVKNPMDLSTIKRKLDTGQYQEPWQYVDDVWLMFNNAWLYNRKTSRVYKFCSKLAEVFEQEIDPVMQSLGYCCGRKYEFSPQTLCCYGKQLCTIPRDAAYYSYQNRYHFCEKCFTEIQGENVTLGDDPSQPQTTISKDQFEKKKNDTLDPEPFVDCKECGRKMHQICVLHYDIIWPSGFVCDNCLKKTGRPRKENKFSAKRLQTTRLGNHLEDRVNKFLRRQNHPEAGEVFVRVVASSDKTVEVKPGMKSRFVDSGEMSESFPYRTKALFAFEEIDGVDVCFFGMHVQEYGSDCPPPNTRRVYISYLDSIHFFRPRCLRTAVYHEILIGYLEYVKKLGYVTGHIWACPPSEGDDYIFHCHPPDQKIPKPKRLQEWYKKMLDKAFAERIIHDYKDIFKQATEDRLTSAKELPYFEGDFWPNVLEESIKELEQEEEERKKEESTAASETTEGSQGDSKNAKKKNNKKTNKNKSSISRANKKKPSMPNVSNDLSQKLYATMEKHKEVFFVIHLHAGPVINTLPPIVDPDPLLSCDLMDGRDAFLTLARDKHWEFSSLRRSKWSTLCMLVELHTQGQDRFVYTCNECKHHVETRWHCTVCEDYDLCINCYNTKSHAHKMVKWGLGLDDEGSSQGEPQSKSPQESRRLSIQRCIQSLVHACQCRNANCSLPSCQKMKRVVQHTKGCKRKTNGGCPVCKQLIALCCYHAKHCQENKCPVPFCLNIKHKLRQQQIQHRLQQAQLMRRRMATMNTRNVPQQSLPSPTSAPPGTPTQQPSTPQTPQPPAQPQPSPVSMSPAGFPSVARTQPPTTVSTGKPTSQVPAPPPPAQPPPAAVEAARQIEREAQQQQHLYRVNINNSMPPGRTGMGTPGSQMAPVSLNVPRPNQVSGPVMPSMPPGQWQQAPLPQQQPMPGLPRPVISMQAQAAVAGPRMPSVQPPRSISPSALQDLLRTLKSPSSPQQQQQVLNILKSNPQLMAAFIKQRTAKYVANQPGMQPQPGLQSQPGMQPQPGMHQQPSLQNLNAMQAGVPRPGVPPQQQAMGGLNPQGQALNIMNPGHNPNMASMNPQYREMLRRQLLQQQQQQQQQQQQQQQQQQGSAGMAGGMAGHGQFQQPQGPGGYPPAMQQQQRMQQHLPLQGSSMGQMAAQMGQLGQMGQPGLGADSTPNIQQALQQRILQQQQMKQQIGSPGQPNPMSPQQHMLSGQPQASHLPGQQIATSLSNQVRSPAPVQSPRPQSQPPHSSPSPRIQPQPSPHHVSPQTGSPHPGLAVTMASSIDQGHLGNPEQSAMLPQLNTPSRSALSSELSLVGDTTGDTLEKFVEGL

| Structure (SMILES) | pEC50 [1] | pIC50 [2] |
| --- | --- | --- |
| COc1cc(O[C@H]2CC[C@H](NC(=O)c3ccc(N4CCC(CN5CCC(n6nc(-c7cccc8cc(-c9cnn(C)c9)ncc78)c7c6CCN(C(C)=O)C7)CC5)CC4)cc3)CC2)ccc1C#N [Compound 163, 4-[4-[[4-[5-acetyl-3-[3-(1-methylpyrazol-4-yl)-8-isoquinolyl]-6,7-dihydro-4H-pyrazolo[4,3-c]pyridin-1-yl]-1-piperidyl]methyl]-1-piperidyl]-N-[4-(4-cyano-3-methoxy-phenoxy)cyclohexyl]benzamide] | > 9.00 | ≥ 10.00 |
| CC(=O)N1CCc2c(c(N3CCCc4cc(-c5cnn(C)c5)c(C(F)F)cc43)nn2[C@@H]2CCN(CC3CCN(c4ccc(C(=O)N[C@H]5CC[C@H](Oc6ccc(C#N)c(Cl)c6)CC5)nn4)CC3)C[C@@H]2F)C1 [Compound 144, 6-[4-[[(3S,4R)-4-[5-acetyl-3-[7-(difluoromethyl)-6-(1-methylpyrazol-4-yl)-3,4-dihydro-2H-quinolin-1-yl]-6,7-dihydro-4H-pyrazolo[4,3-c]pyridin-1-yl]-3-fluoro-1-piperidyl]methyl]-1-piperidyl]-N-[4-(3-chloro-4-cyano-phenoxy)cyclohexyl] pyridazine-3-carboxamide] | > 9.00 | ≥ 10.00 |
| CC(=O)N1CCc2c(c(N3CCCc4cc(-c5cnn(C)c5)c(C)cc43)nn2C2CCN(C(=O)C3CCN(c4ccc(C(=O)N[C@H]5CC[C@H](Oc6ccc(C#N)c(Cl)c6)CC5)nn4)CC3)CC2)C1 [Compound 3, 6-[4-[4-[5-acetyl-3-[7-methyl-6-(1-methylpyrazol-4-yl)-3,4-dihydro-2H-quinolin-1-yl]-6,7-dihydro-4H-pyrazolo[4,3-c]pyridin-1-yl]piperidine-1-carbonyl]-1-piperidyl]-N-[4-(3-chloro-4-cyano-phenoxy)cyclohexyl]pyridazine-3-carboxamide] | > 9.00 | ≥ 10.00 |
| CC(=O)N1CCc2c(c(-c3cccc4cc(-c5cnn(C)c5)ncc34)nn2C2CCN(CC3CCN(c4ccc(C(=O)N[C@H]5CC[C@H](Oc6ccc(C#N)c(Cl)c6)CC5)nn4)CC3)CC2)C1 [Compound 32, 6-[4-[[4-[5-acetyl-3-[3-(1-methylpyrazol-4-yl)-8-isoquinolyl]-6,7-dihydro-4H-pyrazolo[4,3-c]pyridin-1-yl]-1-piperidyl]methyl]-1-piperidyl]-N-[4-(3-chloro-4-cyano-phenoxy)cyclohexyl]pyridazine-3-carboxamide] | > 9.00 | ≥ 10.00 |
| CC(=O)N1CCc2c(c(N3CCCc4cc(-c5cnn(C)c5)c(C(F)F)cc43)nn2C2CCN(CC3CCN(c4ccc(C(=O)N[C@H]5CC[C@H](Oc6ccc(C#N)c(Cl)c6)CC5)nn4)CC3)CC2)C1 [Compound 16, 6-[4-[[4-[5-acetyl-3-[7-(difluoromethyl)-6-(1-methylpyrazol-4-yl)-3,4-dihydro-2H-quinolin-1-yl]-6,7-dihydro-4H-pyrazolo[4,3-c]pyridin-1-yl]-1-piperidyl]methyl]-1-piperidyl]-N-[4-(3-chloro-4-cyano-phenoxy)cyclohexyl]pyridazine-3-carboxamide] | > 9.00 | ≥ 10.00 |
| Cn1c(=O)sc2ccc(-c3cccc4cc(-c5ccc(CCC6CCN(c7ccc(C(=O)N[C@H]8CC[C@H](Oc9ccc(C#N)c(Cl)c9)CC8)nn7)CC6)nc5)ncc34)cc21 [Compound 55, N-[4-(3-chloro-4-cyano-phenoxy)cyclohexyl]-6-[4-[2-[5-[8-(3-methyl-2-oxo-1,3-benzothiazol-5-yl)-3-isoquinolyl]-2-pyridyl]ethyl]-1-piperidyl]pyridazine-3-carboxamide] | > 9.00 | < 7.00 |
| CC(=O)N1CCc2c(c(N3CCCc4cc(-c5cnn(C)c5)ncc43)nn2C2CCN(CC3CCN(c4ccc(C(=O)N[C@H]5CC[C@H](Oc6ccc(C#N)c(Cl)c6)CC5)nn4)CC3)CC2)C1 [Compound 66, rac-6-(4-((4-(5-acetyl-3-(6-(1-methyl-1H-pyrazol-4-yl)-3,4-dihydro-1,7-naphthyridin-1(2H)-yl)-4,5,6,7-tetrahydro-1H-pyrazolo[4,3-c]pyridin-1-yl)piperidin-1-yl)methyl)piperidin-1-yl)-N-((1r,4r)-4-(3-chloro-4-cyanophenoxy)cyclohexyl)pyridazine-3-carboxamide] | > 9.00 | 9.00 to 10.00 |
| CC(=O)N1CCc2c(c(N3CCCc4cc(-c5cnn(C)c5)c(C(F)F)cc43)nn2C2CC3(C2)CN(C(=O)C2CC4(C2)CN(c2ccc(C(=O)N[C@H]5CC[C@H](Oc6ccc(C#N)c(Cl)c6)CC5)nn2)C4)C3)C1 (stereo partly drawn) [Compound 40, 6-[6-[6-[5-acetyl-3-[7-(difluorodimethyl)-6-(1-methylpyrazol-4-yl)-3,4-dihydro-2H-quinolin-1-yl]-6,7-dihydro-4H-pyrazolo[4,3-c]pyridin-1-yl]-2-azaspiro[3.3]heptane-2-carbonyl]-2-azaspiro[3.3]heptan-2-yl]-N-[4-(3-chloro-4-cyano-phenoxy)cyclohexyl]pyridazine-3-carboxamide] | 8.00 to 9.00 | 9.00 to 10.00 |
| CC(=O)N1CCc2c(c(N3CCCc4cc(-c5cnn(C)c5)c(C(F)F)cc43)nn2C2CCN(C[C@H]3CCN(c4ccc(C(=O)N[C@H]5CC[C@H](Oc6ccc(C#N)c(Cl)c6)CC5)nn4)C[C@@H]3C)CC2)C1 [Compound 104, 6-[4-[[4-[5-acetyl-3-[7-(difluoromethyl)-6-(1-methylpyrazol-4-yl)-3,4-dihydro-2H-quinolin-1-yl]-6,7-dihydro-4H-pyrazolo[4,3-c]pyridin-1-yl]-1-piperidyl]methyl]-3-methyl-1-piperidyl]-N-[4-(3-chloro-4-cyano-phenoxy)cyclohexyl]pyridazine-3-carboxamide] | > 9.00 | ≥ 10.00 |

The remaining lines, values ahead:

| pEC50 [1] | pIC50 [2] | Structure (SMILES) |
| --- | --- | --- |
| > 9.00 | ≥ 10.00 | CC(=O)N1CCc2c(c(N3CCCc4cc(-c5cnn(C)c5)c(C(F)F)cc43)nn2[C@H]2CC[C@@]3(CCN(C4CN(c5ccc(C(=O)N[C@H]6CC[C@H](Oc7ccc(C#N)c(Cl)c7)CC6)nn5)C4)C3)CC2)C1 [Compound 263, 6-[3-[8-[5-acetyl-3-[7-(difluoromethyl)-6-(1-methylpyrazol-4-yl)-3,4-dihydro-2H-quinolin-1-yl]-6,7-dihydro-4H-pyrazolo[4,3-c]pyridin-1-yl]-2-azaspiro[4.5]decan-2-yl]azetidin-1-yl]-N-[4-(3-chloro-4-cyano-phenoxy)cyclohexyl]pyridazine-3-carboxamide] |
| > 9.00 | ≥ 10.00 | CC(=O)N1CCc2c(c(N3CCCc4cc(C#N)c(C(F)F)cc43)nn2C2CCN(C[C@H]3[C@H](C)CN(c4ccc(C(=O)N[C@H]5CC[C@H](Oc6ccc(C#N)c(Cl)c6)CC5)nn4)C[C@@H]3C)CC2)C1 [Compound 286, 6-[4-[[4-[5-acetyl-3-[6-cyano-7-(difluoromethyl)-3,4-dihydro-2H-quinolin-1-yl]-6,7-dihydro-4H-pyrazolo[4,3-c]pyridin-1-yl]-1-piperidyl]methyl]-3,5-dimethyl-1-piperidyl]-N-[4-(3-chloro-4-cyano-phenoxy)cyclohexyl]pyridazine-3-carboxamide] |
| > 9.00 | ≥ 10.00 | CC(=O)N1CCc2c(c(N3CCCc4cc(-c5cnn(C)c5)c(C(F)F)cc43)nn2C2CCN(CC3C(C)CN(c4ccc(C(=O)N[C@H]5CC[C@H](Oc6ccc(C#N)c(Cl)c6)CC5)nn4)CC3C)CC2)C1 (stereo partly drawn) [Compound 217, 6-[4-[[4-[5-acetyl-3-[7-(difluoromethyl)-6-(1-methylpyrazol-4-yl)-3,4-dihydro-2H-quinolin-1-yl]-6,7-dihydro-4H-pyrazolo[4,3-c]pyridin-1-yl]-1-piperidyl]methyl]-3,5-dimethyl-1-piperidyl]-N-[4-(3-chloro-4-cyano-phenoxy)cyclohexyl]pyridazine-3-carboxamide] |
| > 9.00 | 9.00 to 10.00 | CC(=O)N1CCc2c(c(N3CCCc4cc(-c5nccs5)c(C(F)F)cc43)nn2C2CCN(CC3CCN(c4ccc(C(=O)N[C@H]5CC[C@H](Oc6ccc(C#N)c(Cl)c6)CC5)nn4)CC3)CC2)C1 [Compound 255, 6-[4-[[4-[5-acetyl-3-[7-(difluoromethyl)-6-thiazol-2-yl-3,4-dihydro-2H-quinolin-1-yl]-6,7-dihydro-4H-pyrazolo[4,3-c]pyridin-1-yl]-1-piperidyl]methyl]-1-piperidyl]-N-[4-(3-chloro-4-cyano-phenoxy)cyclohexyl]pyridazine-3-carboxamide] |
| > 9.00 | 7.00 to 9.00 | CC(=O)N1CCc2c(c(N3CCCc4cc(-c5cnn(C)c5)c(C(F)F)cc43)nn2[C@H]2CC[C@@]3(CCCN(c4ccc(C(=O)N[C@H]5CC[C@H](Oc6ccc(C#N)c(Cl)c6)CC5)nn4)C3)CC2)C1 [Compound 267, 6-[9-[5-acetyl-3-[7-(difluoromethyl)-6-(1-methylpyrazol-4-yl)-3,4-dihydro-2H-quinolin-1-yl]-6,7-dihydro-4H-pyrazolo[4,3-c]pyridin-1-yl]-2-azaspiro[5.5]undecan-2-yl]-N-[4-(3-chloro-4-cyano-phenoxy)cyclohexyl]pyridazine-3-carboxamide] |
| > 9.00 | ≥ 10.00 | CC(=O)N1CCc2c(c(N3CCCc4cc(-c5cnn(C)c5)c(C(F)F)cc43)nn2[C@H]2CC[C@H](OC3CN(c4ccc(C(=O)N[C@H]5CC[C@H](Oc6ccc(C#N)c(Cl)c6)CC5)nn4)C3)CC2)C1 [Compound 224, 6-[3-[4-[5-acetyl-3-[7-(difluoromethyl)-6-(1-methylpyrazol-4-yl)-3,4-dihydro-2H-quinolin-1-yl]-6,7-dihydro-4H-pyrazolo[4,3-c]pyridin-1-yl]cyclohexoxy]azetidin-1-yl]-N-[4-(3-chloro-4-cyanophenoxy)cyclohexyl]pyridazine-3-carboxamide] |

Reference: patent US20250136578A1 (Kolm Therapeutics Inc., priority 2023, published 2025)
